Calls of active or inactive are those of the source. No cut-off for these calls is given here.
What was measured:
[1] = Cytotoxicity against human DU145 cells after 48 hrs by sulforhodamine B assay; format: functional, cell-based; details: DU-145, 48 h
[2] = Cell cycle arrest in human DU145 cells assessed as accumulation at G2/M phase at 20 uM after 48 hrs by propidium iodide staining based flow cytometry (reference value: 15.81%); format: functional; details: DU-145
DU-145 [3] = test: Inhibition of Akt phosphorylation in human DU145 cells after 48 hrs by Western blot analysis; format: cell-based
[4] = Cell cycle arrest in human DU145 cells assessed as accumulation at G0/G1 phase at 15 uM after 48 hrs by propidium iodide staining based flow cytometry (reference value: 61.28%); format: functional; details: DU-145
[5] = Cell cycle arrest in human DU145 cells assessed as accumulation at sub G1 phase at 15 uM after 48 hrs by propidium iodide staining based flow cytometry (reference value: 2.30%); format: functional; details: DU-145
[6] = Cell cycle arrest in human DU145 cells assessed as accumulation at G2/M phase at 15 uM after 48 hrs by propidium iodide staining based flow cytometry (reference value: 15.81%); format: functional; details: DU-145
[7] = Cell cycle arrest in human DU145 cells assessed as accumulation at G2/M phase at 25 uM after 48 hrs by propidium iodide staining based flow cytometry (reference value: 15.81%); format: functional; details: DU-145
DU-145 [8] = test: Induction of apoptosis in human DU145 cells assessed as activation of caspase 8 using Ac-VETD-AMC as substrate preincubated for 48 hrs followed by substrate addition measured after 2 hrs by fluorescence analysis; format: functional, cell-based
DU-145 [9] = test: Induction of apoptosis in human DU145 cells assessed as activation of caspase 3 using Ac-DEVD AMC as substrate at 5 to 25 uM preincubated for 48 hrs followed by substrate addition measured after 2 hrs by fluorescence analysis; format: functional, cell-based
[10] = Cell cycle arrest in human DU145 cells assessed as accumulation at G2/M phase at 5 uM after 48 hrs by propidium iodide staining based flow cytometry (reference value: 15.81%); format: functional; details: DU-145
[11] = Cell cycle arrest in human DU145 cells assessed as accumulation at sub G1 phase at 10 uM after 48 hrs by propidium iodide staining based flow cytometry (reference value: 2.30%); format: functional; details: DU-145
DU-145 [12] = test: Induction of apoptosis in human DU145 cells assessed as activation of caspase 9 using […] as substrate preincubated for 48 hrs followed by substrate addition measured after 2 hrs by fluorescence analysis; format: functional, cell-based
[13] = Cell cycle arrest in human DU145 cells assessed as accumulation at G0/G1 phase at 20 uM after 48 hrs by propidium iodide staining based flow cytometry (reference value: 61.28%); format: functional; details: DU-145
DU-145 [14] = test: Inhibition of colony formation in human DU145 cells after 9 days by crystal violet staining based microscopic analysis; format: functional, cell-based
MCF7 = test: Cytotoxicity against human MCF7 cells after 48 hrs by sulforhodamine B assay; format: functional, cell-based; details: MCF7, 48 h
[15] = Cell cycle arrest in human DU145 cells assessed as accumulation at sub G1 phase at 20 uM after 48 hrs by propidium iodide staining based flow cytometry (reference value: 2.30%); format: functional; details: DU-145
HeLa = test: Cytotoxicity against human HeLa cells after 48 hrs by sulforhodamine B assay; format: functional, cell-based
[16] = Cell cycle arrest in human DU145 cells assessed as accumulation at sub G1 phase at 25 uM after 48 hrs by propidium iodide staining based flow cytometry (reference value: 2.30%); format: functional; details: DU-145
[17] = Cytotoxicity against mouse NIH/3T3 cells after 48 hrs by sulforhodamine B assay; details: NIH3T3, 48 h
[18] = Cell cycle arrest in human DU145 cells assessed as accumulation at S phase at 20 uM after 48 hrs by propidium iodide staining based flow cytometry (reference value: 8.62%); format: functional; details: DU-145
[19] = Cell cycle arrest in human DU145 cells assessed as accumulation at G2/M phase at 10 uM after 48 hrs by propidium iodide staining based flow cytometry (reference value: 15.81%); format: functional; details: DU-145
[20] = Cell cycle arrest in human DU145 cells assessed as accumulation at G0/G1 phase at 10 uM after 48 hrs by propidium iodide staining based flow cytometry (reference value: 61.28%); format: functional; details: DU-145
[21] = Cell cycle arrest in human DU145 cells assessed as accumulation at S phase at 5 uM after 48 hrs by propidium iodide staining based flow cytometry (reference value: 8.62%); format: functional; details: DU-145
[22] = Cell cycle arrest in human DU145 cells assessed as accumulation at S phase at 15 uM after 48 hrs by propidium iodide staining based flow cytometry (reference value: 8.62%); format: functional; details: DU-145
DU-145 [23] = test: Induction of morphological changes in human DU145 cells after 48 hrs by microscopic analysis; format: functional, cell-based
DU-145 [24] = test: Inhibition of Akt in human DU145 cells assessed as increase in p27Kip1 levels after 48 hrs by Western blot analysis; format: cell-based
[25] = Cell cycle arrest in human DU145 cells assessed as accumulation at sub G1 phase at 5 uM after 48 hrs by propidium iodide staining based flow cytometry (reference value: 2.30%); format: functional; details: DU-145
[26] = Cell cycle arrest in human DU145 cells assessed as accumulation at G0/G1 phase at 25 uM after 48 hrs by propidium iodide staining based flow cytometry (reference value: 61.28%); format: functional; details: DU-145
A549 = test: Cytotoxicity against human A549 cells after 48 hrs by sulforhodamine B assay; format: functional, cell-based; details: A549, 48 h
[27] = Cell cycle arrest in human DU145 cells assessed as accumulation at G0/G1 phase at 5 uM after 48 hrs by propidium iodide staining based flow cytometry (reference value: 61.28%); format: functional; details: DU-145
[28] = Cell cycle arrest in human DU145 cells assessed as accumulation at S phase at 10 uM after 48 hrs by propidium iodide staining based flow cytometry (reference value: 8.62%); format: functional; details: DU-145
[29] = Cell cycle arrest in human DU145 cells assessed as accumulation at S phase at 25 uM after 48 hrs by propidium iodide staining based flow cytometry (reference value: 8.62%); format: functional; details: DU-145

| Structure (SMILES) | IC50 [1] [µM] | Activity [2] [%] | inhibition (DU-145 [3]) | Activity [4] [%] | Activity [5] [%] | Activity [6] [%] | Activity [7] [%] | Activity (DU-145 [8]) | Activity (DU-145 [9]) | Activity [10] [%] | Activity [11] [%] | Activity (DU-145 [12]) | Activity [13] [%] | inhibition (DU-145 [14]) | IC50 (MCF7) [µM] | Activity [15] [%] | IC50 (HeLa) [µM] | Activity [16] [%] | IC50 [17] [µM] | Activity [18] [%] | also measured |
| --- | --- | --- | --- | --- | --- | --- | --- | --- | --- | --- | --- | --- | --- | --- | --- | --- | --- | --- | --- | --- | --- |
| CC(=O)OC[C@H]1O[C@@H](n2cc(Cn3cc(/C=C/C(=O)c4ccccc4)c4ccccc43)nn2)[C@H](OC(C)=O)[C@@H](OC(C)=O)[C@@H]1OC(C)=O | 14.4 | 1.87 | Active | 21.5 | 54 | 11.9 | 1.01 | Dose-dependent effect | Active | 8.22 | 43.7 | Dose-dependent effect | 12.9 | Dose-dependent effect | 23.9 | 82.4 | 33 | 84.1 | > 200 | 1.34 | Activity [19]: 16.2%; Activity [20]: 21.2%; Activity [21]: 4.72%; Activity [22]: 3.82%; Activity (DU-145 [23]): Dose-dependent effect; inhibition (DU-145 [24]): Dose-dependent effect; Activity [25]: 4.53%; Activity [26]: 12%; IC50 (A549): 16.3 µM; Activity [27]: 75%; Activity [28]: 4.41%; Activity [29]: 0.8% |
| CC(=O)OC[C@H]1O[C@@H](n2cc(CN3C(=O)/C(=C/c4ccc(C)cc4)c4ccccc43)nn2)[C@H](OC(C)=O)[C@@H](OC(C)=O)[C@@H]1OC(C)=O | 9.3 | 10.9 | Active | 46.6 | 17.2 | 14.9 | 9.05 | Dose-dependent effect | Active | 12.6 | 14.4 | Dose-dependent effect | 40.5 | Dose-dependent effect | > 100 | 34.3 | 85.6 | 37.5 | 73.3 | 5.72 | Activity [19]: 16.7%; Activity [20]: 48.1%; Activity [21]: 6.85%; Activity [22]: 7.64%; Activity (DU-145 [23]): Dose-dependent effect; inhibition (DU-145 [24]): Dose-dependent effect; Activity [25]: 7.12%; Activity [26]: 41.4%; IC50 (A549): 16 µM; Activity [27]: 59.1%; Activity [28]: 7.56%; Activity [29]: 4.86% |
